Values quoted from earlier work in patent US12533348B2, “Ferroportin-inhibitors for the use in the treatment of transfusion-dependent beta-thalassemia (TDT)” (Vifor (International) AG, priority 2019, dated 2026).

Test system: guinea pigs
Details: intravenous administration, cited from earlier work

O=C(NCc1ncccc1F)c1csc(CCNCc2nc3ccccc3[nH]2)n1 [VIT-2653]
NTBI and Hb levels following exchange transfusion (guinea pigs): significantly improved
total iron in kidneys following transfusion (guinea pigs): can be reduced
occurrence of changes in plasma creatinine >0.3 mg/dL (indicator of early AKI) (transfused guinea pigs): significantly reduced
